Experimental data published in patent US20040147788A1, “Stilbene derivatives and their use as aryl hydrocarbon receptor antagonistic ligands” (priority 2002, published 2004).
Values joined by “and” are separate entries in the source; they are usually repeats but may differ in a detail not shown here. Identical values can stand only once.

Assays:
[1] = biological target: T1, Estrogen Receptors extracted from MCF-7 cells (Homo sapiens, UniProt P03372); experiment: Ligand binding competition assay (Estrogen Receptor), [3H]Estradiol
T1 construct: Estrogen Receptors extracted from MCF-7 cells; endogenous in cells; host or cells: MCF-7 (ATCC) cytosol
T1 sequence (P03372 1-595): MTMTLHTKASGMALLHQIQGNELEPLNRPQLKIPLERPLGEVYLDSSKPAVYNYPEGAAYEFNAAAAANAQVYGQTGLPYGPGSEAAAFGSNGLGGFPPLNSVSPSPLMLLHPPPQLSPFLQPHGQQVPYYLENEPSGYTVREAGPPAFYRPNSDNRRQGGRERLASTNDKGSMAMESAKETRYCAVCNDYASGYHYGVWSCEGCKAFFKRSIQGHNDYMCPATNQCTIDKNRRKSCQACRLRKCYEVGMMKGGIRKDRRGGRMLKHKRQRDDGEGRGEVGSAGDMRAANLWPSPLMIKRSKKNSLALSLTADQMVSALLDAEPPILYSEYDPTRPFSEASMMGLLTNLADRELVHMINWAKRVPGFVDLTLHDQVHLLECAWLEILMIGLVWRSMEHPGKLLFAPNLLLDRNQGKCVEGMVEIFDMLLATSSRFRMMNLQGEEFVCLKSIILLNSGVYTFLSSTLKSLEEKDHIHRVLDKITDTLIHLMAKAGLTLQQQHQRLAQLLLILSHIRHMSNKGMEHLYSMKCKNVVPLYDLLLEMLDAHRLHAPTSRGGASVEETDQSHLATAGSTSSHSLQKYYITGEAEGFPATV
Protocol: Ligand Binding Competition Assay (Estrogen Receptor)
ER binding experiments were conducted using Estrogen Receptors extracted from MCF-7 cells as previously described (4). Briefly MCF-7 (from ATCC) were grown to 80% confluency in DMEM medium (GiBCO BRL) suplemented with 10% FCS. Cells were then scraped, and washed twice with PBS. After centrifugation for 10 minutes at 1500 rpm, the cells were resuspended in TM buffer (20 mM Tris, HCl pH 7.4; sodium molybdate, 20 mM). Cells were broken by freeze-thaw lysis of the cell pellets in an equal volume of TM buffer. Cytosolic receptors were prepared by a 105.000 g×60 minutes centrifugation at 0° C., and then stored at −80° C. This cytosolic receptor solution was diluted to 60% in TM buffer, and then incubated with the corresponding ligand for 18 hr at 4° C. in a volume of 100 μl with 50 μg of protein and 2 nM of [3H]Estradiol and two concentrations (1 and 10 μM) of unlabeled test ligand. Assays were terminated by loading 65 μl of the incubate on a 1.2 ml Sephadex TM LH-20 column equilibrated with the TM buffer. The flow through was collected and counted for radioactivity in ready safe scintillant (Beckman).

AhR = biological target: T2, AhR (Homo sapiens, UniProt P35869); experiment: AhR-mediated transactivation, DRE-TK-CAT stable cell line 47DRE treated with TCDD; assay type: cell-based; set-up: endogenous in cells; key to AhR T.A. (transcriptional activity): Ago: agonist; N.M.: not measurable; conditions: DRE-TKCAT reporter; for AhR T.A. (transcriptional activity): trans-stilbenes, 10^−9 M TCDD challenged by 10^−7 M compound; for AhR TA (transcriptional activity): cis-stilbenes, 10^−9 M TCDD challenged by 10−7 M compound
T2 sequence (P35869 11-848): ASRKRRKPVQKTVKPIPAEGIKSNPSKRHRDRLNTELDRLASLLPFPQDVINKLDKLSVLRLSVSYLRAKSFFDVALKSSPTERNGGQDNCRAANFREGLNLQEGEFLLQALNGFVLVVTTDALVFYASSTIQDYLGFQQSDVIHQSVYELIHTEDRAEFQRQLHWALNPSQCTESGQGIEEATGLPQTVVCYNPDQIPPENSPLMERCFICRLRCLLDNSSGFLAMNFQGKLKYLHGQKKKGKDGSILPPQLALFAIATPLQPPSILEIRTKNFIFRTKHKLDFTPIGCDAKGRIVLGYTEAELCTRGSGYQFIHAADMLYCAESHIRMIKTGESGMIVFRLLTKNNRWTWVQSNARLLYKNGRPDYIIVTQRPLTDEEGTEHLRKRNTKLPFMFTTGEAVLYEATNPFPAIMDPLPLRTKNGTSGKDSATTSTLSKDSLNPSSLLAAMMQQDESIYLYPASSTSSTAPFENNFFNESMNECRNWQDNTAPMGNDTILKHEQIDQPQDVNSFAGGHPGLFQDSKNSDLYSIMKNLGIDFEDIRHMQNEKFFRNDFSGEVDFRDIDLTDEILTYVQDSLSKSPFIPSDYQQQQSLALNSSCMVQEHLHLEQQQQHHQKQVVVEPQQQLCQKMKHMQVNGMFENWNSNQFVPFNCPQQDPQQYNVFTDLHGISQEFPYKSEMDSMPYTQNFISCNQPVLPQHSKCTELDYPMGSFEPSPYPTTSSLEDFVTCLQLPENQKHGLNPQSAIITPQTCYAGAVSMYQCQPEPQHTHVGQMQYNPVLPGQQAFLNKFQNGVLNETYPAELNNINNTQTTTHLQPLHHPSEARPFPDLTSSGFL
Protocol: Cis and Trans isomers were then tested for transcriptional modulatory activity in a DRE-TK-CAT containing stable cell line treated with TCDD.
mp° C.: melting point. Ago: agonist. N.M.: not measurable. RBA: relative binding affinity of the compound for the given receptor (AhR or ER).
The stable cell line 47DRE bearing the TCDD-responsive CAT construct was previously described (3). It was routinely grown in DMEM medium supplemented with 10% fetal calf serum (FCS), 4.5 g/L glucose, and 0.6 units/ml (10^−6 M) insulin. Unless stated otherwise, cells were established 24 hours before any experiment in a modified medium (stripped condition) containing 5% Dextran-charcoal-treated newbom calf serum instead of 10% FCS. All other components remained unchanged. […] All chemicals applied to the cells were diluted in ethanol, control cells received ethanol alone. CAT expression was assayed on whole cell extracts (100 μg protein) with a CAT-ELISA assay (Roche, Meylan, France) according to supplier's specifications. Experiments were done in triplicate.

Compound	ER RBA (relative binding affinity) ([1]; trans-stilbenes)	AhR T.A. (transcriptional activity) (AhR)	affinity for ER [1]	melting point	ER RBA (relative binding affinity) ([1]; cis-stilbenes)	AhR TA (transcriptional activity) (AhR)
COc1ccc(/C=C/c2cc(OC)cc(OC)c2)cc1 [Compound 4a, (E)-1-(4-methoxyphenyl)-2-(3,5-dimethoxyphenyl)-ethene]	0.03	Ant	–	–	–	–
Clc1ccc(/C=C/c2cc(Cl)cc(Cl)c2)cc1 [Compound 4b, (E)-1-(4-chlorophenyl)-2-(3,5-dichlorophenyl)-ethene]	N.M	Ant	without detectable affinity	–	–	–
COc1ccc(/C=C/c2cc(F)cc(F)c2)cc1 [Compound 4c, (E)-1-(4-methoxyphenyl)-2-(3,5-difluorophenyl)-ethene]	N.M	Ant	–	108 to 110 °C	–	–
Fc1ccc(/C=C/c2cc(F)cc(F)c2)cc1 [Compound 4d, (E)-1-(4-fluorophenyl)-2-(3,5-difluorophenyl)-ethene]	N.M	Ant	–	47 to 48 °C and 47 °C	–	–
FC(F)(F)c1ccc(/C=C/c2cc(C(F)(F)F)cc(C(F)(F)F)c2)cc1 [Compound 4e, (E)-1-(4-trifluoromethylphenyl)-2-(3,5-ditrifluoromethylphenyl)-ethene]	N.M	Ant	without detectable affinity	99 to 100 °C	–	–
COc1cc(/C=C/c2ccc(F)cc2)cc(OC)c1 [Compound 4f, (E)-1-(4-fluorophenyl)-2-(3,5-dimethoxyphenyl)-ethene]	N.M	Ant	–	–	–	–
CCOc1ccc(/C=C/c2cc(OC)cc(OC)c2)cc1 [Compound 4g, (E)-1-(4-ethoxyphenyl)-2-(3,5-dimethoxyphenyl)-ethene]	N.M	Ant	–	54 to 55 °C	–	–
CCCCOc1ccc(/C=C/c2cc(OC)cc(OC)c2)cc1 [Compound 4h, (E)-1-(4-butoxyphenyl)-2-(3,5-dimethoxyphenyl)-ethene]	N.M	Ant	–	54 to 56 °C	–	–
FC(F)(F)c1ccc(/C=C/c2cc(Cl)cc(Cl)c2)cc1 [Compound 4i, (E)-1-(4-trifluoromethylphenyl)-2-(3,5-dichlorophenyl)-ethene]	N.M	Ago	–	98 to 100 °C	–	–
COc1ccc(/C=C/c2cc(Cl)cc(Cl)c2)cc1 [Compound 4j, (E)-1-(4-methoxyphenyl)-2-(3,5-dichlorophenyl)-ethene]	N.M	Ant	without detectable affinity	62 to 64 °C	–	–
COc1ccc(/C=C\c2cc(OC)cc(OC)c2)cc1 [Compound 5a, (Z)-1-(4-methoxyphenyl)-2-(3,5-dimethoxyphenyl)-ethene]	–	–	–	–	0.06	Ant
Clc1ccc(/C=C\c2cc(Cl)cc(Cl)c2)cc1 [Compound 5b, (Z)-1-(4-chlorophenyl)-2-(3,5-dichlorophenyl)-ethene]	–	–	–	–	N.M	Ant
CCCCOc1ccc(/C=C\c2cc(OC)cc(OC)c2)cc1 [Compound 5h, (Z)-1-(4-butoxyphenyl)-2-(3,5-dimethoxyphenyl)-ethene]	–	–	–	–	N.M	Ant

More lines, now with the values ahead:

ER RBA (relative binding affinity) ([1]; trans-stilbenes)	AhR T.A. (transcriptional activity) (AhR)	affinity for ER [1]	melting point	ER RBA (relative binding affinity) ([1]; cis-stilbenes)	AhR TA (transcriptional activity) (AhR)	Compound
–	–	–	–	N.M	Ant	COc1ccc(/C=C\c2cc(F)cc(F)c2)cc1 [Compound 5c, (Z)-1-(4-methoxyphenyl)-2-(3,5-difluorophenyl)-ethene]
–	–	–	–	N.M	Ant	Fc1ccc(/C=C\c2cc(F)cc(F)c2)cc1 [Compound 5d, (Z)-1-(4-fluorophenyl)-2-(3,5-difluorophenyl)-ethene]
–	–	–	–	N.M	Ant	FC(F)(F)c1ccc(/C=C\c2cc(C(F)(F)F)cc(C(F)(F)F)c2)cc1 [Compound 5e, (Z)-1-(4-trifluoromethylphenyl)-2-(3,5-ditrifluoromethylphenyl)-ethene]
–	–	–	–	N.M	Ant	COc1cc(/C=C\c2ccc(F)cc2)cc(OC)c1 [Compound 5f, (Z)-1-(4-fluorophenyl)-2-(3,5-dimethoxyphenyl)-ethene]
–	–	–	–	N.M	Ant	CCOc1ccc(/C=C\c2cc(OC)cc(OC)c2)cc1 [Compound 5g, (Z)-1-(4-ethoxyphenyl)-2-(3,5-dimethoxyphenyl)-ethene]
–	–	–	–	N.M	Ant	FC(F)(F)c1ccc(/C=C\c2cc(Cl)cc(Cl)c2)cc1 [Compound 5i, (Z)-1-(4-trifluoromethylphenyl)-2-(3,5-dichlorophenyl)-ethene]
–	–	–	–	N.M	Ant	COc1ccc(/C=C\c2cc(Cl)cc(Cl)c2)cc1 [Compound 5j, (Z)-1-(4-methoxyphenyl)-2-(3,5-dichlorophenyl)-ethene]
